Assay results from US20120190752A1, “EXO-S-MECAMYLAMINE METHOD, USE, AND COMPOUND FOR TREATMENT” (Targacept Inc., priority 2009, published 2012).

Test system: subjects with major depressive disorder (MDD) who were inadequate responders to citalopram
Test: MADRS total score, Phase 2b add-on trial
Format: in vivo, human
Text: The Montgomery-Asberg Depression Rating Scale (abbreviated MADRS) is a ten-item diagnostic questionnaire which psychiatrists may use to measure the severity of depressive episodes in patients with mood disorders (Montgomery et al. 1979). It was designed in 1979 by British and Swedish researchers as an adjunct to the Hamilton Rating Scale for Depression (HAMD) which would be more sensitive to the changes brought on by antidepressants and other forms of treatment than the HAMD. There is, however, a high degree of statistical correlation between scores on the two measures. In more detail, a multi-center double-blind, randomized, placebo-controlled, parallel group, flexible dose titration study of TC-5214 as adjunctive therapy in subjects with major depressive disorder (MDD) who were inadequate responders to citalopram was conducted in centers in the US and India. The study consisted of a screening period, baseline/washout period, open-label phase, double-blind phase, and a follow-up visit. Subject participation in the study could continue for up to 16 weeks of treatment. Following a washout period of up to 28 days for other antidepressants, subjects with MDD and a MADRS total score >/=28 and a Clinical Global Impression-Severity (CGI-S) score >/=4 were enrolled on Day 1 into an open-label citalopram-only phase of the study. This phase lasted 8 weeks, with citalopram (CIT) dose increased from a once-daily dose of 20 mg (Day 1 through Week 4) to 40 mg (Week 4 through Week 8). A total of 579 subjects entered the open-label citalopram phase. At Week 8, subjects who tolerated 40 mg CIT, but whose MADRS score was reduced <50% from baseline and no lower than 17, and CGI-S≧4, were considered inadequate responders. These subjects (n=270) were randomized in a double-blind fashion to receive either placebo or TC-5214-23 as add-on therapy to continued CIT. The double-blind phase of the study also lasted 8 weeks (Week 8 to Week 16). Study drug, TC-5214-23 or placebo, was started at 2 mg daily (1 mg twice per day [BID] dosing), added on to continuing CIT (40 mg PO qd). After 2 weeks of treatment, the dose of TC-5214 could be increased to 4 mg (2 mg BID) or continued unchanged, with up-titration based upon good tolerability and inadequate therapeutic response. After a further 2 weeks, the dose of TC-5214 could be increased again to 8 mg (4 mg BID) if judged appropriate by the investigator, based upon good tolerability and inadequate therapeutic response. At any time during the double-blind phase of the study, placebo or TC-5214-23 could be reduced to the previous dose level following the emergence of unacceptable adverse events (AEs). […] At this follow-up, any signs or symptoms of relapse were evaluated. If a subject was prematurely discontinued from the study between Week 8 and Week 16 for any reason, the investigator was to make every effort to perform all evaluations as per protocol, assuming the subject had reached the end of the double-blind add-on treatment phase. These evaluations were to be made as soon as possible and within 2 weeks of discontinuation. […] There was no meaningful difference in results as a function of age, gender, site, or smoking status. With regard to efficacy endpoints, the following tables present efficacy used in the ITT (Intent-to-Treat) and PP (Per Protocol) populations unless otherwise specific. The primary inference was based upon Week 16 visit using the ITT population. Change from baseline was obtained by subtracting the baseline values from the individual on-treatment values. Change from Week 16 was obtained by subtracting the Week 16 values from the individual follow-up visit (Week 18/19) values. If either the baseline or Week 16 or on-treatment or follow-up value was missing, the change from baseline or Week 16 value was also set to missing. […]

[1] = ITT (N = 133), Double Blind Week 16
[2] = ITT (N = 133), Double Blind Week 18 (Follow-up)
[3] = ITT and PP populations, result in words
[4] = ITT population, Week 8 (double-blind baseline) to Week 16
[5] = ITT, Double Blind Week 18 LOCF (Follow-up), change from Week 16
[6] = PP (N = 113), Double Blind Week 16
[7] = PP (N = 113), Double Blind Week 18 (Follow-up)
[8] = PP, Double Blind Week 16 LOCF (change from Week 8)
[9] = PP, Double Blind Week 18 LOCF (Follow-up), change from Week 16

SMILES: CNC1(C)C2CCC(C2)C1(C)C (stereo in doubt) [TC-5214, (S)—N,2,3,3-tetramethylnorbornan-2-amine]
- MADRS reduction from baseline ≧50%: Subjects with Response (number) [1]: 89
- MADRS reduction from baseline ≧50%: Subjects with Response (percentage) [1]: (67%)
- MADRS reduction from baseline ≧50%: Subjects without Response (number) [1]: 44
- MADRS reduction from baseline ≧50%: Subjects without Response (percentage) [1]: (33%)
- MADRS ≦10: Subjects with Remission (number) [1]: 69
- MADRS ≦10: Subjects with Remission (percentage) [1]: (52%)
- MADRS ≦10: Subjects without Remission (number) [1]: 64
- MADRS ≦10: Subjects without Remission (percentage) [1]: (48%)
- MADRS ≦12: Subjects with Remission (number) [1]: 77
- MADRS ≦12: Subjects with Remission (percentage) [1]: (58%)
- MADRS ≦12: Subjects without Remission (number) [1]: 56
- MADRS ≦12: Subjects without Remission (percentage) [1]: (42%)
- MADRS reduction from baseline ≧50%: Subjects with Response (number) [2]: 94
- MADRS reduction from baseline ≧50%: Subjects with Response (percentage) [2]: (71%)
- MADRS reduction from baseline ≧50%: Subjects without Response (number) [2]: 39
- MADRS reduction from baseline ≧50%: Subjects without Response (percentage) [2]: (29%)
- MADRS ≦10: Subjects with Remission (number) [2]: 73
- MADRS ≦10: Subjects with Remission (percentage) [2]: (55%)
- MADRS ≦10: Subjects without Remission (number) [2]: 60
- MADRS ≦10: Subjects without Remission (percentage) [2]: (45%)
- MADRS ≦12: Subjects with Remission (number) [2]: 86
- MADRS ≦12: Subjects with Remission (percentage) [2]: (65%)
- MADRS ≦12: Subjects without Remission (number) [2]: 47
- MADRS ≦12: Subjects without Remission (percentage) [2]: (35%)
- MADRS remission (≦10 or ≦12) proportion compared with placebo [3]: higher proportion of subjects meeting the remission criteria
- MADRS responders (reduction from baseline ≧50%) proportion compared with placebo [3]: higher proportion of responders
- MADRS total score change from baseline compared with placebo [3]: statistically significant decreases (improvements)
- MADRS Total Score: Adjusted Mean Change TC-5214—Placebo (SD) [4]: −7.54 (10.13)
- MADRS Total Score: Effect Size [4]: 0.74
- MADRS Mean Difference between TC-5214 and Placebo (ITT, Double Blind Week 16 LOCF (change from Week 8)): 7.54
- MADRS Adjusted Mean change [5]: −0.87
- MADRS Mean Difference between TC-5214 and Placebo [5]: −0.54
- MADRS Difference vs Placebo + CIT (ITT, Week 8 to Week 16 LOCF): −7.45
- MADRS Adj. Mean change (ITT, change from Week 8 (double-blind baseline) to Week 16 LOCF, add-on to citalopram): −17.26
- MADRS reduction from baseline ≧50%: Subjects with Response (number) [6]: 84
- MADRS reduction from baseline ≧50%: Subjects with Response (percentage) [6]: (74%)
- MADRS reduction from baseline ≧50%: Subjects without Response (number) [6]: 29
- MADRS reduction from baseline ≧50%: Subjects without Response (percentage) [6]: (26%)
- MADRS ≦10: Subjects with Remission (number) [6]: 67
- MADRS ≦10: Subjects with Remission (percentage) [6]: (59%)
- MADRS ≦10: Subjects without Remission (number) [6]: 46
- MADRS ≦10: Subjects without Remission (percentage) [6]: (41%)
- MADRS ≦12: Subjects with Remission (number) [6]: 72
- MADRS ≦12: Subjects with Remission (percentage) [6]: (64%)
- MADRS ≦12: Subjects without Remission (number) [6]: 41
- MADRS ≦12: Subjects without Remission (percentage) [6]: (36%)
- MADRS reduction from baseline ≧50%: Subjects with Response (number) [7]: 89
- MADRS reduction from baseline ≧50%: Subjects with Response (percentage) [7]: (79%)
- MADRS reduction from baseline ≧50%: Subjects without Response (number) [7]: 24
- MADRS reduction from baseline ≧50%: Subjects without Response (percentage) [7]: (21%)
- MADRS ≦10: Subjects with Remission (number) [7]: 70
- MADRS ≦10: Subjects with Remission (percentage) [7]: (62%)
- MADRS ≦10: Subjects without Remission (number) [7]: 43
- MADRS ≦10: Subjects without Remission (percentage) [7]: (38%)
- MADRS ≦12: Subjects with Remission (number) [7]: 81
- MADRS ≦12: Subjects with Remission (percentage) [7]: (72%)
- MADRS ≦12: Subjects without Remission (number) [7]: 32
- MADRS ≦12: Subjects without Remission (percentage) [7]: (28%)
- MADRS Adjusted Mean change [8]: −19.34
- MADRS Mean Difference between TC-5214 and Placebo [8]: 7.97
- MADRS Adjusted Mean change [9]: −1.10
- MADRS Mean Difference between TC-5214 and Placebo [9]: −0.20
